Data from patent US20260125357A1, “LACTATE ENHANCING COMPOUNDS AND USES THEREOF” (GLIAPHARM SA, priority 2022, published 2026).

Legend:
[1] = test system: neurons in astrocyte-neuron co-culture; test: MTT mitochondrial activity in neurons from astrocyte-neuron co-cultures; format: cell-based, mouse; details: 10 μM, 2 hours
Method: Primary mouse neuronal cultures were obtained from 18-day OF1 mouse embryos (Charles River Laboratories). Briefly, cortices were isolated and minced in small pieces under a dissecting microscope. The cells were incubated for 30 min at 37° C. in a solution containing 20 U/ml papain, 1 mM L-cysteine and 10 kU/ml DNase I. After dissociation, papain activity was stopped by the addition of fetal calf serum (FCS). Single-cell suspension was then obtained by mechanical dissociation, which consisted in cells trituration in a Neurobasal+B-27+Glutamax medium. The cells were seeded at an average density of ˜1.5×10^5 cells/cm^2 on poly-D-lysine coated 12-well culture plates and grown in Neurobasal medium supplemented with B-27 and Glutamax at 37° C. in a humidified atmosphere containing 5% CO2/95% air. Neurons were used at DIV10. […]
Neuron pure culture or astrocyte-neuron co-cultures were treated for 2 hours with compound (2) at 10 μM in a solution composed of Neurobasal complemented with B-27 and Glutamax, as well as 0.25 mg/ml thiazol blue tetrazolium bromide (MTT). […] After stimulation, empty coverslips (neuron pure cultures) or astrocytes on coverslips (astrocyte-neuron co-cultures) were separated from neurons, medium was removed and the amount of reduced MTT, i.e formazan, solubilized in DMSO (50 μl/well) was determined using a spectrophotometer (absorbance of 570 nm).

[2] = test system: human iPSC-derived astrocytes; test: Uptake of 2-DG in human iPSC-derived astrocytes; format: cell-based; details: treated for 1.5 hours
Method: Astrocytes grown on 12-well plates and transfected with either scramble siRNA or GLUT1 siRNA were used. 1 day after having replaced transfection medium (DIV13), 2DG uptake was measured after treatment for 30 min with Vehicle (0.1% DMSO) or with the compound of the invention (1) to (5) (concentrations of 0.1 to 10 μM). During treatment, 1 mM 2DG was added to the medium for assessment of 2DG uptake. At the end of the stimulation, medium was removed and replaced with 150 μl NaOH 0.1M, and stored at −20° C. After thawing, cells were collected using cell scraper and heated for 40 min at 85° C. Then, 150 ul HCl 0.1M and TAE buffer 200 mM was added to each condition. 20 μl were added to a transparent 96-well plate and 2DG was quantified by addition of a reaction solution containing 50 mM TAE, 50 mM KCl, 0.02% BSA, 0.1 mM NADP, 0.2 U/ml diaphorase, 2 mM resazurin and 20 U/ml glucose-6-phosphate dehydrogenase. Concentration of 2DG in samples were calculated by comparison with standard curve of deoxy-glucose-6-phophate ranging from 0 to 1 nmoles.
Human iPSC-derived astrocytes were purchased from NCardia (NCyte Astrocytes) and were plated at a density of ˜10′000 cells/cm^2 in 96-well or 12-well plates, according to the manufacturer's instructions and using the recommended media. […] Uptake of 2-DG and release of lactate were quantified as described previously.

[3] = test system: human iPSC-derived astrocytes; test: Release of lactate from human iPSC-derived astrocytes; format: cell-based; details: treated for 1.5 hours
Method: Secretion of L-lactate was measured in the extracellular medium of 96-well plated astrocytes after 90 min stimulation (at 37° C., in 5% CO2/95% air conditions) with Vehicle (DMSO), the compounds of the invention (100 nM to 100 μM) or positive control. […] Stimulation medium was composed of D5030 medium complemented with 5 mM D-glucose and 44 mM sodium bicarbonate, pH 7.2. To quantify lactate concentrations in the extracellular medium, 200 μl of a 0.2M Glycine-semicarbazide buffer (pH 10) containing 3 mM NAD and 14 U/ml LDH was added to each well of a 96-well plate containing 30 μl aliquots of extracellular medium. Samples were incubated at 37° C. for 1 h. Fluorescence intensity (340 nm excitation/450 nm emission), which represents the amount of NADH produced, was measured, and lactate concentration values were determined relative to a standard curve of L-lactate concentrations.
Human iPSC-derived astrocytes were purchased from NCardia (NCyte Astrocytes) and were plated at a density of ˜10′000 cells/cm^2 in 96-well or 12-well plates, according to the manufacturer's instructions and using the recommended media. Experiments were performed at 7 days in vitro. Cells were treated for 1.5 hours with compound (2). Uptake of 2-DG and release of lactate were quantified as described previously.

APOE4(+) transgenic mice = test: Morris Water Maze memory in APOE4(+) mouse model of Alzheimer's disease; format: in vivo; details: 30 mg/kg, 7 days after training
Text: Mouse models carrying the APOE4 human allele have a decrease in metabolic gene expression and cerebral glucose uptake compared to APOE3-expressing model (Williams et al., 2020, neurobiol dis, 136:104742; Lin et al., 2015, J Cereb Blood Flow Metabl, 37(1):217-226; Alata et al., 2015, J Cereb Blood Flow Metab, 35(1):86-94. These physiological perturbations induce a brain hypometabolism, which recapitulates brain metabolic status observed in AD carriers of APOE4 allele. Male and female APOE4(+) and APOE3(+) (controls) transgenic mice are used at 3 months of age. Memory of APOE3(+) mice treated with Veh and APOE4 (+) mice treated with Veh or compound (2) at 10 mg/kg and 30 mg/kg is tested in the Morris Water Maze, as described below. Treatment is administered at each day of training, 30 minutes before the first training session. No treatment is administered during memory retention test.
Morris Water Maze (MWM), a well-established spatial and contextual memory test, will be used. […] A number of parameters including the latency to find the platform, time spent around the platform, path efficiency, % time spent in each quadrant is recorded, using automated tracking software (Ethovision). The type of exploration (direct, random, scan of the area) is also recorded. […]

COc1cc2ccnc(Nc3ccc(S(C)(=O)=O)cc3)c2cc1OC [Compound 2, 6,7-dimethoxy-N-(4-methylsulfonylphenyl)isoquinolin-1-amine]
mitochondrial activity of neurons (MTT) [1]: enhances mitochondrial activity of neurons in astrocyte-neuron co-culture
uptake of 2-DG [2]: increased uptake of 2-DG
release of lactate [3]: increased
memory in the Morris Water Maze (APOE4(+) transgenic mice): significant increase of memory
